Experimental data reported in the supplement of paper PMC10307832.

Experiments:
Assay in all cases: relative viability (nuclei count vs DMSO), 5 days (fraction); higher = more cells survive
[1] = compound: CC1=C(C=C(C=C1)NC(=O)C2=CC(=CC=C2)C(C)(C)C#N)NC3=CC4=C(C=C3)N=CN(C4=O)C [AZ628] + CS(=O)(=O)CCNCc1ccc(-c2ccc3ncnc(Nc4ccc(OCc5cccc(F)c5)c(Cl)c4)c3c2)o1 [Lapatinib] (partner 2 µM)
Method in brief: (§1)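 One day after seeding in 1536-well plates, lung cancer cell lines were dosed by pin tool. Dosing was either single-drug or a fixed anchor-drug dose plus five library-drug doses (not always all listed) in √10 steps. After 5 days, nuclei were stained in one fix-and-stain step and counted on 4× images, and relative viability is the nuclei count of treated wells over that of vehicle wells, given as the median of duplicate plates.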

[2] = compound: CC1=C(C=C(C=C1)NC(=O)C2=CC(=CC=C2)C(C)(C)C#N)NC3=CC4=C(C=C3)N=CN(C4=O)C [AZ628] + CC(=O)Nc1cccc(-n2c(=O)n(C3CC3)c(=O)c3c(Nc4ccc(I)cc4F)n(C)c(=O)c(C)c32)c1 [Trametinib] (partner 0.02 µM)
Method in brief: as §1

[3] = compound: CC1=C(C=C(C=C1)NC(=O)C2=CC(=CC=C2)C(C)(C)C#N)NC3=CC4=C(C=C3)N=CN(C4=O)C [AZ628] + Cc1nc(Nc2ncc(C(=O)Nc3c(C)cccc3Cl)s2)cc(N2CCN(CCO)CC2)n1 [Dasatinib] (partner 0.075 µM)
Method in brief: as §1

[4] = compound: C1CC2=C(C1)C=C(C=C2)OC3=NC(=C4C(=N3)N(C=N4)CC5=CC=C(C=C5)C6=CC=CC=C6)N[C@@H](CC7=CC=CC=C7)CO [QS11] + CS(=O)(=O)CCNCc1ccc(-c2ccc3ncnc(Nc4ccc(OCc5cccc(F)c5)c(Cl)c4)c3c2)o1 [Lapatinib] (partner 2 µM)
Method in brief: as §1

NCI-H2023 gave a relative viability ([1]; first compound 0.08 µM) of 0.914, a relative viability ([1]; first compound 0.253 µM) of 0.859 and a relative viability ([1]; first compound 0.8 µM) of 0.914. For the same cell line, the relative viability ([1]; first compound 2.53 µM) was 0.763, the relative viability ([1]; first compound 8 µM) was 0.689 and the relative viability ([2]; first compound 0.08 µM) was 0.402. For the same cell line, the relative viability ([2]; first compound 0.253 µM) was 0.338, the relative viability ([2]; first compound 0.8 µM) was 0.203 and the relative viability ([2]; first compound 2.53 µM) was 0.237. It also gave a relative viability ([2]; first compound 8 µM) of 0.183, a relative viability ([3]; first compound 0.08 µM) of 0.617 and a relative viability ([3]; first compound 0.253 µM) of 0.647. It also gave a relative viability ([3]; first compound 0.8 µM) of 0.444, a relative viability ([3]; first compound 2.53 µM) of 0.436 and a relative viability ([3]; first compound 8 µM) of 0.396. For the same cell line, the relative viability ([4]; first compound 0.08 µM) was 0.809, the relative viability ([4]; first compound 0.253 µM) was 0.797 and the relative viability ([4]; first compound 0.8 µM) was 0.747. It also gave a relative viability ([4]; first compound 2.53 µM) of 0.773 and a relative viability ([4]; first compound 8 µM) of 0.706.

NCI-H2085 gave a relative viability ([1]; first compound 0.08 µM) of 0.824, a relative viability ([1]; first compound 0.253 µM) of 0.685 and a relative viability ([1]; first compound 0.8 µM) of 0.795. It also gave a relative viability ([1]; first compound 2.53 µM) of 0.741, a relative viability ([1]; first compound 8 µM) of 0.743 and a relative viability ([2]; first compound 0.08 µM) of 0.502. It also gave a relative viability ([2]; first compound 0.253 µM) of 0.479, a relative viability ([2]; first compound 0.8 µM) of 0.628 and a relative viability ([2]; first compound 2.53 µM) of 0.601. It also gave a relative viability ([2]; first compound 8 µM) of 0.481, a relative viability ([3]; first compound 0.08 µM) of 0.255 and a relative viability ([3]; first compound 0.253 µM) of 0.274. For the same cell line, the relative viability ([3]; first compound 0.8 µM) was 0.252, the relative viability ([3]; first compound 2.53 µM) was 0.239 and the relative viability ([3]; first compound 8 µM) was 0.237. It also gave a relative viability ([4]; first compound 0.08 µM) of 0.714, a relative viability ([4]; first compound 0.253 µM) of 0.716 and a relative viability ([4]; first compound 0.8 µM) of 0.713. The relative viability ([4]; first compound 2.53 µM) was 0.861 and the relative viability ([4]; first compound 8 µM) was 0.778.

Cell Line NCI-H2087 has a relative viability ([1]; first compound 0.08 µM) of 0.795, a relative viability ([1]; first compound 0.253 µM) of 0.799 and a relative viability ([1]; first compound 0.8 µM) of 0.636. The relative viability ([1]; first compound 2.53 µM) was 0.865, the relative viability ([1]; first compound 8 µM) was 0.41 and the relative viability ([2]; first compound 0.08 µM) was 0.18. For the same cell line, the relative viability ([2]; first compound 0.253 µM) was 0.191, the relative viability ([2]; first compound 0.8 µM) was 0.161 and the relative viability ([2]; first compound 2.53 µM) was 0.152. For the same cell line, the relative viability ([2]; first compound 8 µM) was 0.184, the relative viability ([3]; first compound 0.08 µM) was 0.565 and the relative viability ([3]; first compound 0.253 µM) was 0.32. It also gave a relative viability ([3]; first compound 0.8 µM) of 0.226, a relative viability ([3]; first compound 2.53 µM) of 0.237 and a relative viability ([3]; first compound 8 µM) of 0.154. For the same cell line, the relative viability ([4]; first compound 0.08 µM) was 0.996, the relative viability ([4]; first compound 0.253 µM) was 1.09 and the relative viability ([4]; first compound 0.8 µM) was 0.728. It also gave a relative viability ([4]; first compound 2.53 µM) of 0.651 and a relative viability ([4]; first compound 8 µM) of 0.688.

Work on NCI-H2126 yielded a relative viability ([1]; first compound 0.08 µM) of 0.758, a relative viability ([1]; first compound 0.253 µM) of 0.857 and a relative viability ([1]; first compound 0.8 µM) of 0.834. It also gave a relative viability ([1]; first compound 2.53 µM) of 0.752, a relative viability ([1]; first compound 8 µM) of 0.89 and a relative viability ([2]; first compound 0.08 µM) of 0.559. For the same cell line, the relative viability ([2]; first compound 0.253 µM) was 0.512, the relative viability ([2]; first compound 0.8 µM) was 0.498 and the relative viability ([2]; first compound 2.53 µM) was 0.562. For the same cell line, the relative viability ([2]; first compound 8 µM) was 0.481, the relative viability ([3]; first compound 0.08 µM) was 0.584 and the relative viability ([3]; first compound 0.253 µM) was 0.565. It also gave a relative viability ([3]; first compound 0.8 µM) of 0.492, a relative viability ([3]; first compound 2.53 µM) of 0.491 and a relative viability ([3]; first compound 8 µM) of 0.415. The relative viability ([4]; first compound 0.08 µM) was 0.792, the relative viability ([4]; first compound 0.253 µM) was 0.698 and the relative viability ([4]; first compound 0.8 µM) was 0.727. For the same cell line, the relative viability ([4]; first compound 2.53 µM) was 0.802 and the relative viability ([4]; first compound 8 µM) was 0.717.

NCI-H2170 showed a relative viability ([1]; first compound 0.08 µM) of 0.3, a relative viability ([1]; first compound 0.253 µM) of 0.279 and a relative viability ([1]; first compound 0.8 µM) of 0.248. The relative viability ([1]; first compound 2.53 µM) was 0.268, the relative viability ([1]; first compound 8 µM) was 0.278 and the relative viability ([2]; first compound 0.08 µM) was 0.872. It also gave a relative viability ([2]; first compound 0.253 µM) of 0.897, a relative viability ([2]; first compound 0.8 µM) of 0.799 and a relative viability ([2]; first compound 2.53 µM) of 0.807. For the same cell line, the relative viability ([2]; first compound 8 µM) was 0.583, the relative viability ([3]; first compound 0.08 µM) was 0.555 and the relative viability ([3]; first compound 0.253 µM) was 0.391. For the same cell line, the relative viability ([3]; first compound 0.8 µM) was 0.46, the relative viability ([3]; first compound 2.53 µM) was 0.557 and the relative viability ([3]; first compound 8 µM) was 0.481. For the same cell line, the relative viability ([4]; first compound 0.08 µM) was 0.276, the relative viability ([4]; first compound 0.253 µM) was 0.262 and the relative viability ([4]; first compound 0.8 µM) was 0.246. It also gave a relative viability ([4]; first compound 2.53 µM) of 0.281 and a relative viability ([4]; first compound 8 µM) of 0.316.

Cell Line NCI-H2228 has a relative viability ([1]; first compound 0.08 µM) of 1.11, a relative viability ([1]; first compound 0.253 µM) of 1.13 and a relative viability ([1]; first compound 0.8 µM) of 0.784. For the same cell line, the relative viability ([1]; first compound 2.53 µM) was 0.9, the relative viability ([1]; first compound 8 µM) was 1.17 and the relative viability ([2]; first compound 0.08 µM) was 0.34. The relative viability ([2]; first compound 0.253 µM) was 0.316, the relative viability ([2]; first compound 0.8 µM) was 0.263 and the relative viability ([2]; first compound 2.53 µM) was 0.129. For the same cell line, the relative viability ([2]; first compound 8 µM) was 0.12, the relative viability ([3]; first compound 0.08 µM) was 0.479 and the relative viability ([3]; first compound 0.253 µM) was 0.531. It also gave a relative viability ([3]; first compound 0.8 µM) of 0.47, a relative viability ([3]; first compound 2.53 µM) of 0.432 and a relative viability ([3]; first compound 8 µM) of 0.396. The relative viability ([4]; first compound 0.08 µM) was 1.12, the relative viability ([4]; first compound 0.253 µM) was 0.826 and the relative viability ([4]; first compound 0.8 µM) was 1.17. It also gave a relative viability ([4]; first compound 2.53 µM) of 1.54 and a relative viability ([4]; first compound 8 µM) of 1.09.

NCI-H2347 was tested, and the relative viability ([1]; first compound 0.08 µM) was 0.8, the relative viability ([1]; first compound 0.253 µM) was 0.89 and the relative viability ([1]; first compound 0.8 µM) was 0.902. For the same cell line, the relative viability ([1]; first compound 2.53 µM) was 0.836, the relative viability ([1]; first compound 8 µM) was 0.457 and the relative viability ([2]; first compound 0.08 µM) was 0.233. It also gave a relative viability ([2]; first compound 0.253 µM) of 0.277, a relative viability ([2]; first compound 0.8 µM) of 0.261 and a relative viability ([2]; first compound 2.53 µM) of 0.256. The relative viability ([2]; first compound 8 µM) was 0.27, the relative viability ([3]; first compound 0.08 µM) was 0.272 and the relative viability ([3]; first compound 0.253 µM) was 0.278. The relative viability ([3]; first compound 0.8 µM) was 0.22, the relative viability ([3]; first compound 2.53 µM) was 0.252 and the relative viability ([3]; first compound 8 µM) was 0.163. For the same cell line, the relative viability ([4]; first compound 0.08 µM) was 0.867, the relative viability ([4]; first compound 0.253 µM) was 0.93 and the relative viability ([4]; first compound 0.8 µM) was 0.795. The relative viability ([4]; first compound 2.53 µM) was 0.859 and the relative viability ([4]; first compound 8 µM) was 1.02.
